What was measured:
CREB-binding protein = CREB-binding protein (Homo sapiens, UniProt Q92793); experiment: Inhibition of biotinylated-H4KAc4 binding to human His6-tagged CBP (R1081 to G1197 residues) expressed in Escherichia coli BL21(DE3) after 2.5 hrs by luminescence-based AlphaScreen assay
[1] = molecular target: T1, ATPase family AAA domain-containing protein 2 (Homo sapiens) (UniProt Q6PL18); experiment: Inhibition of biotinylated-H4KAc4 binding to human His6-tagged ATAD2 expressed in Escherichia coli BL21(DE3) at 50 uM after 2.5 hrs by luminescence-based AlphaScreen assay relative to control
T1 sequence (whole entry): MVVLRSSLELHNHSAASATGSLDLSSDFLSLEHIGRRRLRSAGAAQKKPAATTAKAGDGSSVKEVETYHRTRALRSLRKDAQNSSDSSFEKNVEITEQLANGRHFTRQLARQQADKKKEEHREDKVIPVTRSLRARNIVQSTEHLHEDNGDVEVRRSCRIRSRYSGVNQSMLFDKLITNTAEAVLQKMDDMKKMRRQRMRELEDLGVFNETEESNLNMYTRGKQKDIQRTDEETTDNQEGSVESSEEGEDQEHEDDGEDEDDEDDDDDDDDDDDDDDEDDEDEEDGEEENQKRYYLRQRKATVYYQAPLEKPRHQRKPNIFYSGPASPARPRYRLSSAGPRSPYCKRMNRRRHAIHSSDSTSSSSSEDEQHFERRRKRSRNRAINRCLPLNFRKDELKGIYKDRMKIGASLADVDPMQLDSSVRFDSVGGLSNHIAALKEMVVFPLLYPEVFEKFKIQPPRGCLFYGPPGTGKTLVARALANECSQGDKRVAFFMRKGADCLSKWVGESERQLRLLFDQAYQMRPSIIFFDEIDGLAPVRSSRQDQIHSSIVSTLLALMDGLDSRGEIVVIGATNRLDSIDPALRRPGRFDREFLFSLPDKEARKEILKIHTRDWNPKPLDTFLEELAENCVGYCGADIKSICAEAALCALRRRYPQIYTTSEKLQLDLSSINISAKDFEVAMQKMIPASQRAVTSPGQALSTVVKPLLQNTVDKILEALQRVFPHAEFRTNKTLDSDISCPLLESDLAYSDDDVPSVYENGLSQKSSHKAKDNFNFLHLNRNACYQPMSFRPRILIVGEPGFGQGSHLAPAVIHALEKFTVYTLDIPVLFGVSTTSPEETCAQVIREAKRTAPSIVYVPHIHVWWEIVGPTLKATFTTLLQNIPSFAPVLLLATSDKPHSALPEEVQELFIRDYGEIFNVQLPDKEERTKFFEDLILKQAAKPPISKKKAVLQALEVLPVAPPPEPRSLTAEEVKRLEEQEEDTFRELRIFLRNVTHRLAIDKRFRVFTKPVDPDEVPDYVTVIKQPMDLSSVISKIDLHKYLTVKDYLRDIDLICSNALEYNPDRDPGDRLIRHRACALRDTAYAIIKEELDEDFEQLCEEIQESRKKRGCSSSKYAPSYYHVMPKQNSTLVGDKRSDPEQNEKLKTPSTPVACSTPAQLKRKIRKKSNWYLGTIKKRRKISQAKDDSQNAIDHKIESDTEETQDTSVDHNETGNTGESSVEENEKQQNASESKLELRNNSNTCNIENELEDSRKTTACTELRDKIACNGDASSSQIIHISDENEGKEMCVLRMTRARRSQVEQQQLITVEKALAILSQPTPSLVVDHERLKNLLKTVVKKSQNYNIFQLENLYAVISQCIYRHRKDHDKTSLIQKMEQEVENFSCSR

[2] = molecular target: Bromodomain adjacent to zinc finger domain protein 2B (Homo sapiens, UniProt Q9UIF8); experiment: Inhibition of biotinylated-H4KAc4 binding to human His6-tagged BAZ2B (S1858 to S1972 residues) expressed in Escherichia coli BL21(DE3) at 50 uM after 2.5 hrs by luminescence-based AlphaScreen assay relative to control
Sequence of Bromodomain adjacent to zinc finger domain protein 2B (Q9UIF8 whole entry, the tested form may be a part): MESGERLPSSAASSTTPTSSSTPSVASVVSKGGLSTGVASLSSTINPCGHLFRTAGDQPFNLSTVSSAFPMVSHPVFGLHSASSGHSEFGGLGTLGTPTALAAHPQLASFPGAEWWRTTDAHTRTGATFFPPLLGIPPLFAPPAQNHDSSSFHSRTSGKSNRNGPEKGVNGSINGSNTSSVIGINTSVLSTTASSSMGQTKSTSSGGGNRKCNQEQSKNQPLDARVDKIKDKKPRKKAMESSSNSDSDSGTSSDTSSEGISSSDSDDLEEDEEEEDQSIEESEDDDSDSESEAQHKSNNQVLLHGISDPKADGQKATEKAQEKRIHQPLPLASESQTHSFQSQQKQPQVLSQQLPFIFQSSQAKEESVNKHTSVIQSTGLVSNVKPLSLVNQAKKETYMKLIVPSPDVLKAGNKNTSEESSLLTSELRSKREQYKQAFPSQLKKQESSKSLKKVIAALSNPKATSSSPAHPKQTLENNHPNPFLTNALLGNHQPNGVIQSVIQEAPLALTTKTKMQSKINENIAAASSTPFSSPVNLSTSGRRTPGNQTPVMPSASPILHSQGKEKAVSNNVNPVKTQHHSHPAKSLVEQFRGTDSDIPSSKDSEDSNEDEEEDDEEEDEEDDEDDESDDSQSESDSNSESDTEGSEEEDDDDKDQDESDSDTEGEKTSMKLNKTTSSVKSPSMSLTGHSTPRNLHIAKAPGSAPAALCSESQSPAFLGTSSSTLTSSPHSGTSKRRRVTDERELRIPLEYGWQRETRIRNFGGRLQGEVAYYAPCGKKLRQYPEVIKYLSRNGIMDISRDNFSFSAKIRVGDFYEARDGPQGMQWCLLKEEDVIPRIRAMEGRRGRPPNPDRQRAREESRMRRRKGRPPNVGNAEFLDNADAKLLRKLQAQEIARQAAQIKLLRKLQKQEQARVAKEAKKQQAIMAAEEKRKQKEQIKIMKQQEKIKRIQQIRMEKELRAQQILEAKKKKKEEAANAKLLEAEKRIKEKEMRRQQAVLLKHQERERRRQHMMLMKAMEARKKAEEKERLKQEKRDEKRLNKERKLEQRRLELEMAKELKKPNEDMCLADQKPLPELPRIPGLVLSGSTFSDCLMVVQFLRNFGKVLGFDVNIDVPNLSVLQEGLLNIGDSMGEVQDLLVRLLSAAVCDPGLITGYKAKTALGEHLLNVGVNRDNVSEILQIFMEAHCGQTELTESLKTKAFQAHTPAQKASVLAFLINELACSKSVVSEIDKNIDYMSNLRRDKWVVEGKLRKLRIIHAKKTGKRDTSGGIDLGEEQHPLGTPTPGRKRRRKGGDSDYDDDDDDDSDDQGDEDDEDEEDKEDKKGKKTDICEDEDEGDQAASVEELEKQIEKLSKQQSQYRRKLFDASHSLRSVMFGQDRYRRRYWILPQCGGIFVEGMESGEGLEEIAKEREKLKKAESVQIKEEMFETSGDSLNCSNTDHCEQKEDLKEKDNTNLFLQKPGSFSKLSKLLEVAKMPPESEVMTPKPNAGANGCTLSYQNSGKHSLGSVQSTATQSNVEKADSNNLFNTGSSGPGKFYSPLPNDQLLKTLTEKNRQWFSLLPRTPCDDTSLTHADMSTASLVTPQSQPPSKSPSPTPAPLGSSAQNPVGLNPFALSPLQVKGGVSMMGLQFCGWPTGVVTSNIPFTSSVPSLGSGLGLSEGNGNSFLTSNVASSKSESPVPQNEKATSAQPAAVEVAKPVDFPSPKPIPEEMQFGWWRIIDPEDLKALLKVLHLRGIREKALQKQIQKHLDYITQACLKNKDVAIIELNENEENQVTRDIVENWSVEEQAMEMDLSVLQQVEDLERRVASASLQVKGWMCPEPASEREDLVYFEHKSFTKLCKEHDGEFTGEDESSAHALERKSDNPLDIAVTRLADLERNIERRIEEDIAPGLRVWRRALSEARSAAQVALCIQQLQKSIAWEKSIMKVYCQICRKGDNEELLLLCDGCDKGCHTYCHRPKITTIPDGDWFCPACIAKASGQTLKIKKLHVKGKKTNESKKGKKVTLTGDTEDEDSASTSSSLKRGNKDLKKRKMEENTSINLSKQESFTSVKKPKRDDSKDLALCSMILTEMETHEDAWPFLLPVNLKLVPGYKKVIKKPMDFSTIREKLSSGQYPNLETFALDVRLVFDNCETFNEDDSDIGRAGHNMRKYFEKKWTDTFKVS

[3] = molecular target: Bromodomain-containing protein 4 (Homo sapiens, UniProt O60885); experiment: Inhibition of biotinylated-H4KAc4 binding to human His6-tagged BRD4 bromodomain-1 (N44 to E168 residues) expressed in Escherichia coli BL21(DE3) at 50 uM after 2.5 hrs by luminescence-based AlphaScreen assay relative to control
LNCaP = experiment: Antiproliferative activity against human LNCAP cells after 72 hrs by Cell-Titer Glo assay; assay type: functional, cell-based; conditions: Homo sapiens, LNCaP, 72 h; read-out: IC50

Sequence of CREB-binding protein (Q92793 whole entry, the tested form may be a part): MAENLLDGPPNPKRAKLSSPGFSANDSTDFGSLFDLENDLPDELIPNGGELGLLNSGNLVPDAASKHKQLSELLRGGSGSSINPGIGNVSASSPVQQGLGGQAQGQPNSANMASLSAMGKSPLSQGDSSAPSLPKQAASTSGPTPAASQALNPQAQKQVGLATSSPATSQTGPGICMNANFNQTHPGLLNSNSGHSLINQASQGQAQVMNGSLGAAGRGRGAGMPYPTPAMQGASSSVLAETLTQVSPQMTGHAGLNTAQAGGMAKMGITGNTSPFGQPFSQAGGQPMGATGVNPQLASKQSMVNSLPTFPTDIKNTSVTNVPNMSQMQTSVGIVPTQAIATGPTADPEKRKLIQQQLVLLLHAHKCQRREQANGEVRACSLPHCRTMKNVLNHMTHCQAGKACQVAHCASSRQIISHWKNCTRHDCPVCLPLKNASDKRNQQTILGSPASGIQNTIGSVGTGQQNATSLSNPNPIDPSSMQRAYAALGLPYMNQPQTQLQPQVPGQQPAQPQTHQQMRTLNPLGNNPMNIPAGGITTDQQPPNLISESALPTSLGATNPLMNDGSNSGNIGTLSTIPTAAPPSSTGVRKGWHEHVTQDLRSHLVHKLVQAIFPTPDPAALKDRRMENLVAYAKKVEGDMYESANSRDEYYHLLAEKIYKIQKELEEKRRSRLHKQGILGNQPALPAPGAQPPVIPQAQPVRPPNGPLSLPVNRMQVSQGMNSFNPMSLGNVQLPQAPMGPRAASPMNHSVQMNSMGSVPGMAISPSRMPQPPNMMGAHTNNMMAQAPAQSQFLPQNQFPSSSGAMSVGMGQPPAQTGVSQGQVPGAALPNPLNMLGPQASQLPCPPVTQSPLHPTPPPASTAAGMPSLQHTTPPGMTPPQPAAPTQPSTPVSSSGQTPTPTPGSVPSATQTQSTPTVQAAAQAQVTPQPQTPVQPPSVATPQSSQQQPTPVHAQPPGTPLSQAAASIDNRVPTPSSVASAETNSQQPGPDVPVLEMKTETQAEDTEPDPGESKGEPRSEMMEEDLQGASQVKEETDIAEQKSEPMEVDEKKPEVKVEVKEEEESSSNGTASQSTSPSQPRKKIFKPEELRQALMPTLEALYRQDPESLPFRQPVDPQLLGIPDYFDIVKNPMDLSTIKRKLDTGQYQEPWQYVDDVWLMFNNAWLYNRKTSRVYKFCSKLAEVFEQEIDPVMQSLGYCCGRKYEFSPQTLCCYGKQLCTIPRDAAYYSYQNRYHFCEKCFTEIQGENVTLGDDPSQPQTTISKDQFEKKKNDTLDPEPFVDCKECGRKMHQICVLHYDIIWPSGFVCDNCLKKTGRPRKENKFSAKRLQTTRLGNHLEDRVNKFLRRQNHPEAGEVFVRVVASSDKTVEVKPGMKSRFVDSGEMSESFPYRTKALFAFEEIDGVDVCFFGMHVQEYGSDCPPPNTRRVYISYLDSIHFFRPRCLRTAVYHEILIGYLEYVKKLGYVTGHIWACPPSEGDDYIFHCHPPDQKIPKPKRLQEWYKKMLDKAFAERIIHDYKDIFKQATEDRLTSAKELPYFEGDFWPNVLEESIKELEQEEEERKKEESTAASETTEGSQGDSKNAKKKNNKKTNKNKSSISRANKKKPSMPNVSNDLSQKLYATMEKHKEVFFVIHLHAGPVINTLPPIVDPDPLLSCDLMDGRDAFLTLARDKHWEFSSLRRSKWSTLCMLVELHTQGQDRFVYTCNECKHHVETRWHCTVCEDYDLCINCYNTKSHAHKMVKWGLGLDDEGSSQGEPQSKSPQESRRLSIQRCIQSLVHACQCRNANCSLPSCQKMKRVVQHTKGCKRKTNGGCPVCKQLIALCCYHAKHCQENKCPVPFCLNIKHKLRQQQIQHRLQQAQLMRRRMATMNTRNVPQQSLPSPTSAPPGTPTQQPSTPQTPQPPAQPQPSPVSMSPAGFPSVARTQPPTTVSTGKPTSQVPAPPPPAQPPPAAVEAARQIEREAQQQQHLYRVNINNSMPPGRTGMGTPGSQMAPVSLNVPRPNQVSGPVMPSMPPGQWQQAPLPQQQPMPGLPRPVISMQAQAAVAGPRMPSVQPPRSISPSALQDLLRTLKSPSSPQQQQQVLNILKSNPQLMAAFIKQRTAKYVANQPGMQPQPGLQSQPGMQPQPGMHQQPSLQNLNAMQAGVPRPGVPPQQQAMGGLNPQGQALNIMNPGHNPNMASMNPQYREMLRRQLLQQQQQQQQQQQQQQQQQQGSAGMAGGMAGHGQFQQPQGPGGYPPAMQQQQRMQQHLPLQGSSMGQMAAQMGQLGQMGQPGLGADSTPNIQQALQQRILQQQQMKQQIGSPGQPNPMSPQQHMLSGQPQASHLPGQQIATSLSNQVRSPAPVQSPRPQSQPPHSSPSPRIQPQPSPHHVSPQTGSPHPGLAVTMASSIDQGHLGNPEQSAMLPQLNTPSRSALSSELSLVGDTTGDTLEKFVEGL

CC(=O)n1cc(C(=O)Nc2cc(C(=O)O)cc(-c3ccccc3)c2)c2ccccc21
IC50 (CREB-binding protein): 1.86 µM

CC(=O)n1cc(C(=O)Nc2cc(C(=O)O)cc(C3CC3)c2)c2ccccc21
IC50 (CREB-binding protein): 2.74 µM

CC(=O)n1cc(C(=O)Nc2cc(C(=O)O)ccc2NCC2CCOCC2)c2ccccc21
IC50 (CREB-binding protein): 6.36 µM

CC(=O)n1cc(C(=O)Nc2cc(C(=O)O)ccc2NCc2ccccc2)c2ccccc21
IC50 (CREB-binding protein): 4.11 µM

CC(=O)n1cc(C(=O)Nc2cc(C(=O)O)ccc2NCC2CC2)c2ccccc21
IC50 (CREB-binding protein): 21.6 µM

Cn1nc(-c2ccc(Cl)cc2)c2ccccc2c1=O
inhibition [1]: 49%
inhibition [2]: 34%
IC50 (CREB-binding protein): > 50 µM
inhibition [3]: 57%

CC(=O)n1cc(C(=O)Nc2cc(C(=O)O)cc(-c3cccc(Cl)c3)c2)c2ccccc21
IC50 (CREB-binding protein): 1.44 µM

CC(=O)c1cn(CC(=O)N2CCC(C(=O)O)CC2)c2ccccc12
IC50 (CREB-binding protein): 13.6 µM

COC(=O)[C@H]1CCCN(C(=O)Cn2cc(C(C)=O)c3ccccc32)C1
IC50 (CREB-binding protein): 7.09 µM

CC(=O)n1cc(C(=O)Nc2cc(C(=O)O)ccc2NC2CCCC2)c2ccccc21
IC50 (CREB-binding protein): 1.89 µM

CC(=O)n1cc(C(=O)Nc2cc(C(=O)O)cc(C3CCCCC3)c2)c2ccccc21
IC50 (CREB-binding protein): 2.48 µM

CC(=O)n1cc(C(=O)Nc2cc(C(=O)O)cc(-c3cncc(C)c3)c2)c2ccccc21
IC50 (CREB-binding protein): 1.69 µM

CC(=O)n1cc(C(=O)Nc2cc(C(=O)O)cc(-c3cc4ccccc4o3)c2)c2ccccc21
IC50 (CREB-binding protein): 2.81 µM

CC(=O)n1cc(C(=O)Nc2cc(Br)cc(C(=O)O)c2)c2ccccc21
IC50 (CREB-binding protein): 4.7 µM

CC(=O)c1cn(CCC(=O)O)c2ccccc12
inhibition [1]: 39%
inhibition [2]: 21%
IC50 (CREB-binding protein): 16.7 µM
inhibition [3]: 34%

CC(=O)n1cc(C(=O)Nc2cc(C(=O)O)ccc2NCC(C)C)c2ccccc21
IC50 (CREB-binding protein): 2.33 µM

CC(=O)n1cc(C(=O)NCCN2CCNC2=O)c2ccccc21
IC50 (CREB-binding protein): 32.6 µM

CCOc1ccc2c(c1)c(C(=O)Nc1cc(C(=O)O)cc(-c3ccco3)c1)cn2C(C)=O
IC50 (CREB-binding protein): 3.89 µM

CC(=O)n1cc(C(=O)Nc2cc(C(=O)O)cc(-c3ccc4c(cnn4C)c3)c2)c2ccccc21
IC50 (CREB-binding protein): 1 µM

CC(=O)n1ncc2c([N+](=O)[O-])cc([N+](=O)[O-])cc21
inhibition [1]: 98%
inhibition [2]: 97%
IC50 (CREB-binding protein): 9.11 µM
inhibition [3]: 98%

CC(=O)c1cccc(NC(=O)c2cn(C(C)=O)c3ccccc23)c1
IC50 (CREB-binding protein): 25.4 µM

CC(=O)OCc1cn(C(C)=O)c2ccccc12
inhibition [1]: 32%
inhibition [2]: 10%
IC50 (CREB-binding protein): > 50 µM
inhibition [3]: 17%

CC(=O)n1cc(C(=O)Nc2cc(C(=O)O)cc(-c3cccc(C(F)(F)F)c3)c2)c2ccccc21
IC50 (CREB-binding protein): 4.05 µM

CC(=O)c1nn(-c2ccccc2)cc1C(=O)c1ccccc1
inhibition [1]: 35%
inhibition [2]: 21%
IC50 (CREB-binding protein): > 50 µM
inhibition [3]: 27%

CC(=O)n1cc(C(=O)Nc2cc(C(=O)O)ccc2NC2CC2)c2ccccc21
IC50 (CREB-binding protein): 4.84 µM

CNC(=O)c1ccc(N2C(=S)N(c3ccc(C#N)c(C(F)(F)F)c3)C(=O)C2(C)C)cc1F [ENZALUTAMIDE]
IC50 (LNCaP): 33.8 µM

CC(=O)Nc1ccc2c(c1)c1ccccc1n2C(C)=O
inhibition [1]: 4%
inhibition [2]: 10%
IC50 (CREB-binding protein): > 50 µM
inhibition [3]: -3%

CC(=O)n1cc(C(=O)Nc2cc(C(=O)O)cc(C3CCCC3)c2)c2ccccc21
IC50 (CREB-binding protein): 2.99 µM

COc1ccc2c(c1)c(C(=O)Nc1cc(C(=O)O)cc(-c3ccc4c(cnn4C)c3)c1)cn2C(C)=O
IC50 (CREB-binding protein): 0.29 µM

CC(=O)c1coc2c1cc(O)c1ccccc12
inhibition [1]: 55%
inhibition [2]: 36%
IC50 (CREB-binding protein): 41.4 µM
inhibition [3]: 51%

CC(=O)n1cc(C(=O)Nc2cc(C(=O)O)cc(-c3ccco3)c2)c2cc(O)ccc21
IC50 (CREB-binding protein): 0.17 µM

CC(=O)n1cc(C(=O)Nc2cc(C(=O)O)ccc2NC2CCOCC2)c2ccccc21
IC50 (CREB-binding protein): 8.5 µM

CC(=O)c1nn(-c2ccccc2)c(C)c1C(C)=O
inhibition [1]: 19%
inhibition [2]: 6%
IC50 (CREB-binding protein): > 50 µM
inhibition [3]: 5%

CC(=O)n1cc(C(=O)Nc2cc(C(=O)O)ccc2NC2CCCCCC2)c2ccccc21
IC50 (CREB-binding protein): 1.67 µM

CC(=O)NCCNC(=O)c1cn(C(C)=O)c2ccccc12
IC50 (CREB-binding protein): 33.8 µM

CC(=O)c1cn(CC(=O)N2CCC[C@H](C(=O)O)C2)c2ccccc12
IC50 (CREB-binding protein): 6.8 µM

COC(=O)C1CCN(C(=O)Cn2cc(C(C)=O)c3ccccc32)CC1
IC50 (CREB-binding protein): 19.8 µM

COc1ccc2c(c1)c(C(=O)Nc1cc(C(=O)O)cc(-c3ccc4c(c3)OCCO4)c1)cn2C(C)=O
IC50 (CREB-binding protein): 0.69 µM

CCOC(=O)CCn1cc(C(C)=O)c2ccccc21
IC50 (CREB-binding protein): 39.6 µM

CCCNc1ccc(C(=O)O)cc1NC(=O)c1cn(C(C)=O)c2ccccc12
IC50 (CREB-binding protein): 6.56 µM

CCc1cc(NC(=O)c2cn(C(C)=O)c3ccccc23)cc(C(=O)O)c1
IC50 (CREB-binding protein): 2.8 µM

Nc1c(Nc2ccccc2)c2ccccc2oc1=O
inhibition [1]: 32%
inhibition [2]: 32%
IC50 (CREB-binding protein): > 50 µM
inhibition [3]: 8%

CCCOc1ccc2c(c1)c(C(=O)Nc1cc(C(=O)O)cc(-c3ccco3)c1)cn2C(C)=O
IC50 (CREB-binding protein): 26.2 µM

CC(=O)n1cc(C(=O)Nc2cc(C(=O)O)cc(-c3cccc(F)c3)c2)c2ccccc21
IC50 (CREB-binding protein): 3.52 µM

CC(=O)n1cc(C(=O)Nc2cc(CCc3ccccc3)cc(C(=O)O)c2)c2ccccc21
IC50 (CREB-binding protein): 1.96 µM

CC(=O)n1c(C#N)nc2ccccc21
inhibition [1]: 29%
inhibition [2]: 24%
IC50 (CREB-binding protein): > 50 µM
inhibition [3]: 20%

Nc1c(N2CCCC2)c2ccccc2oc1=O
inhibition [1]: 52%
inhibition [2]: 69%
IC50 (CREB-binding protein): > 50 µM
inhibition [3]: 47%

COc1cccc(-c2cc(NC(=O)c3cn(C(C)=O)c4ccccc34)cc(C(=O)O)c2)c1
IC50 (CREB-binding protein): 2.07 µM

CCCCNc1ccc(C(=O)O)cc1NC(=O)c1cn(C(C)=O)c2ccccc12
IC50 (CREB-binding protein): > 50 µM

COC(=O)c1cccc(NC(=O)c2cn(C(C)=O)c3ccccc23)c1
IC50 (CREB-binding protein): 3.39 µM

O=C1N=CC(c2cccc([N+](=O)[O-])c2)c2ccccc21 (configuration not stated)
inhibition [1]: 87%
inhibition [2]: 59%
IC50 (CREB-binding protein): > 50 µM
inhibition [3]: 23%

CC(=O)n1cc(C(=O)Nc2cc(C(=O)O)ccc2NCC2CCCCC2)c2ccccc21
IC50 (CREB-binding protein): 2.33 µM

CC(=O)n1cc(C(=O)Nc2cc(CC(C)C)cc(C(=O)O)c2)c2ccccc21
IC50 (CREB-binding protein): 3.39 µM

CC(=O)c1nn(-c2ccccc2)c2c1CCCC2
inhibition [1]: 6%
IC50 (CREB-binding protein): > 50 µM
inhibition [3]: -2%

— ChEMBL document CHEMBL4145544, “Discovery and optimization of 1-(1H-indol-1-yl)ethanone derivatives as CBP/EP300 bromodomain inhibitors for the treatment of castration-resistant prostate cancer” (Eur J Med Chem, 2018)
